The source of these data is patent publication US7087729B1, “Peptide conjugates for the stabilization of membrane proteins and interactions with biological membranes” (University Health Network, priority 1999, dated 2006).

The conditions of data set [1]: cited from earlier work.
Data set [2] in a line: Solubility of lipopeptide detergents in water. In kind it is physicochemical. Here is the method:
The LPDs with chain lengths from 10 to 16 carbons are soluble in water to over 10 mM, and the LPDs with chain lengths from 18 to 24 carbons are soluble to over 1 mM. […] As a control, a reference molecule known as C-0 is made with the same peptide scaffold, but without the coupled lipids. […] Every batch of peptide is analyzed by MS to confirm the synthesis.

The target in data set [3] is T1, bacteriorhodopsin (Halobacterium salinarum, UniProt P02945).
T1 construct: Purple membranes were isolated by overlaying 12.5 mL of the membrane suspension on a 40%/60% (10 mL/7.5 mL) sucrose gradient; made in house; host or cells: Halobacterium salinarium (strain a gift of J. Lanyi); protein isolated from purple membranes of the natural producer
T1 sequence (P02945 14-261 limits assumed): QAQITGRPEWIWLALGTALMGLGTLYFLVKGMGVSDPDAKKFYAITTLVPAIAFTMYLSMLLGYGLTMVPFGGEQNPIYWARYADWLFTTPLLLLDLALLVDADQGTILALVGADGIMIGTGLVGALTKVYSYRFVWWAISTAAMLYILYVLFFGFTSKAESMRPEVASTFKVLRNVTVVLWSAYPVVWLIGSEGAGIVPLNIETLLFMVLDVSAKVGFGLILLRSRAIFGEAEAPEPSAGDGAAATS
The data set is described as follows: Stabilization of detergent-solubilized bacteriorhodopsin after exchange of OG for LPD; absorption spectrum of supernatant during storage. Further details: species or system Halobacterium salinarium. The conditions noted are these: stored in the dark at room temperature, spectra at 1 to 32 days, supernatant after 100,000xg.
Procedure: The purple membranes were homogenized in 25 mM sodium phosphate, pH 6.9 with 1.5% OG (Anatrace, Maumee, Ohio) and mixed for 36 hours in the dark. After adjusting the pH to 5.5 with 0.1 N HCl, the solution was spun at 200,000×g for 45 minutes to obtain the soluble bacterioprhodopsin (BR) in the supernatant. The protein was concentrated to 5 mg/mL by ultrafiltration with an Amicon PM 10 membrane. BR was further purified from this solution by chromatography on a Superdex 75 gel filtration column in 25 mM sodium phosphate, pH 5.5, 1.2% (w/v) OG, at a flow rate of 1 mL/min.
Typically, the initial concentration of OG in the purified BR sample was approximately 50 mM, which is roughly twice the critical micelle concentration for this detergent.

Square brackets hold non-standard residues; d marks the D form. Peptide text beside a SMILES is read from it. * marks the point of attachment. X1 = CCCCCCCCCCCCCCCCCCCCCCCCCCCC(=O)*; Orn = NCCC[C@H](N)C(=O)O

`CCCCCCCCCCO[C@@H]1O[C@H](CO)[C@@H](O)[C@H](O)[C@H]1O` [decyl glucoside]: the solubility in water in data set [1] was 0.1 % (w/v).
In the case of `CCCCCCCCCCCCCCCCCCCCCCCCCCCC(=O)NCCC[C@H](NC(=O)[C@H](C)NC(=O)[C@H](CCCCN)NC(=O)[C@H](C)NC(=O)[C@H](C)NC(=O)[C@H](CCCCN)NC(=O)[C@H](CCC(=O)O)NC(=O)[C@H](C)NC(=O)[C@H](C)NC(=O)[C@H](CCC(=O)O)NC(=O)[C@H](C)NC(=O)[C@H](C)NC(=O)[C@H](Cc1ccc(O)cc1)NC(=O)[C@H](CCCCN)NC(=O)[C@H](C)NC(=O)[C@H](C)NC(=O)[C@H](CCCCN)NC(=O)[C@H](CCC(=O)O)NC(=O)[C@H](C)NC(=O)[C@H](C)NC(=O)[C@H](CCC(=O)O)NC(=O)[C@H](C)NC(=O)[C@H](CCCNC(=O)CCCCCCCCCCCCCCCCCCCCCCCCCCC)NC(=O)[C@H](C)NC(C)=O)C(=O)N[C@@H](C)C(N)=O` [LPD-28] (Ac-A[Orn](X1)AEAAEKAAKYAAEAAEKAAKA[Orn](X1)A-NH2), the “solubility in water (in words)” value in data set [2] is “poorly soluble in water”.
`CCCCCCCCO[C@@H]1O[C@H](CO)[C@@H](O)[C@H](O)[C@H]1O` [OG, octyl β-D-glucopyranoside]: the “preservation of the native bacteriorhodopsin absorption spectrum over storage time” value in data set [3] was “lost the characteristic spectum for native bacteriorhodopsin within a few days”; in data set [3] (listed as octyl glucoside (OG)), “loss of the native conformation of the protein over time”. Further, the solubility in water result in data set [1] is given as “greater than 20 % (w/v)”.
In the case of `CCCCCCCCCCCCO[C@@H]1O[C@H](CO)[C@@H](O)[C@H](O)[C@H]1O` [dodecyl glucoside], the solubility in water in data set [1] is given as 0.008 % (w/v).
